Legend:
[1] = system: nude mice (SKH-1); experiment: Recovery of acute skin barrier disruption (tape stripping); assay type: in vivo
Experimental: The recovery rate after acute skin barrier disruption was evaluated on a selected compound by using nude mice. Skins of both abdominal regions of each of 6-8 week aged nude mice (SKH-1) were subjected to repetitive tape stripping, so that transepidermal water loss reached a level of about 35˜40 g/m^2/hr, and then, respective samples were applied thereto. The transepidermal water loss was measured by using the TEWameter (Courage & Khazaka, Germany) immediately before and after skin barrier disruption and 3 hours and 6 hours after application, and the recovery rate of transepidermal water loss was calculated as follows.
(wherein, TEWLa is TEWL value immediately after barrier disruption, TEWLb is TEWL value at the baseline, and TEWLc is TEWL value at the indicated time.)

[2] = biological target: T1, PAR-2 (Homo sapiens, UniProt P55085); experiment: PathHunter β-arrestin GPCR assay; assay type: cell-based; parameters: expressed in transfected cells; host or cells: KNRK (Kirsten Murine Sarcoma Virus transformed rat kidney epithelial cells); settings: β-arrestin accumulation
T1 sequence (P55085 26-397): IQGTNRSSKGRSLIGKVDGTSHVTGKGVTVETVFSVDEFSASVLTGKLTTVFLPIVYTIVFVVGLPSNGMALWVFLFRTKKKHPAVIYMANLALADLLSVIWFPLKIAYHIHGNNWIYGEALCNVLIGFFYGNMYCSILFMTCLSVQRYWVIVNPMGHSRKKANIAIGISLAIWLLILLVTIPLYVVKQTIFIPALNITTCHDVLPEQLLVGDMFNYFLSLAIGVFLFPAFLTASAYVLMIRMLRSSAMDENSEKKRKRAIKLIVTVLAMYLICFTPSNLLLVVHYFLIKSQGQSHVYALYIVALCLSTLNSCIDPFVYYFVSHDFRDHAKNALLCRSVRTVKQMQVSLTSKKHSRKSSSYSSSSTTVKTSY
Experimental: An in vitro assay protocol capable of detecting activation of PAR-2 was additively introduced besides the calcium immobilization assay, and activity of the selected material was measured. First, the PAR-2 inhibitory activity of Compound 98 was measured by using the PathHunter™ β-arrestin GPCR assay kit by DiscoveRx Company, capable of detecting accumulation of β-arrestin, which is an intercellular reaction material primarily generated by activation of PAR-2. As the measurement results, an IC50 value slightly different from the Calcium immobilization assay was observed (Table 1).

[3] = biological target: T1, PAR-2; experiment: Confocal microscopy of PAR-2 activation in KNRK-PAR-2 cell line; assay type: cell-based; parameters: expressed in transfected cells; host or cells: KNRK (Kirsten Murine Sarcoma Virus transformed rat kidney epithelial cells); settings: [Compound 98]=200 μM, [trypsin]=1 μM, [SLIGKV]=100 μM, KNRK-PAR-2 cells
Experimental: In order to visually confirm activation of PAR-2, a cell line having the following structure was prepared referring to the existing reference documents, and activation of PAR-2 was observed by using a confocal microscopy. As a cell line, Kirsten Murine Sarcoma Virus transformed rat kidney epithelial cell (KNRK cell) was used, which is a cell line where, normally, PAR-2 is not expressed. In the KNRK cell, flag epitope was tagged to an N-terminal and Myc epitope was tagged to a C-terminal, so that a stable transfected cell was constructed. Flag and Myc of the thus prepared KNRK-PAR-2 cell line were subjected to double staining, and activation or non-activation of PAR-2 was observed by using the confocal microscopy ([trypsin]=1 μM, [SLIGKV(AP)]=100 μM). When the PAR-2 was not activated, Flag and Myc were double-stained and thus appears yellow in the merged image. However, when the PAR-2 was activated, Flag was separated away and thus a red image was shown.

[4] = system: nude mice (SKH-1); experiment: Oxazolone chronic dermatitis animal model; assay type: in vivo; settings: compared with the control group
Experimental: Efficacy of a selected material was evaluated by using a chronic dermatitis animal model. An animal model of which chronic dermatitis was induced by continuously applying oxaozolone, which is a kind of hapten, to the nude mice was used. […] In order to construct a chronic dermatitis animal model, 5% of oxazolone was applied to 6-week nude mice (SKH-1) and thus sensitized, and 0.1% of oxazolone was applied once every two days from a week after, resulting in inducing dermatitis symptom. The sample was applied to an animal after induction at an interval of once a day for three days, and various dermal functions and skin thickness change were observed. Finally, skin biopsy was conducted and histological observation was conducted.
As a positive control group used in the experiment, 0.05% of desonide, which is relatively low potency steroid, was used, and the transepidermal water loss, the moisture content in the stratum corneum, and skin thickness change were observed.

[5] = biological target: T1, PAR-2; experiment: Calcium immobilization assay (Calcium-4 assay kit); assay type: cell-based; parameters: expressed in transfected cells; settings: HCT-15 PAR-2-overexpressed cell line, activating peptide (AP) as activator
Experimental: In order to evaluate PAR-2 inhibitory activity of the synthesized material, first, an assay system capable of measuring the change in concentration of calcium ions in a cell in real-time was constructed, and then an evaluation was conducted by using the assay system. PAR-2 is a kind of G-protein coupled receptor (GPCR). When the PAR-2 is activated in the cell, phospholipase C-b (PLC-b) was activated to cleave phosphatidylinositol 4,5-bisphosphate (PIP2) into inositol triphosphate (IP3) and diacyl glycerol (DAG). The IP3 generated herein promotes secretion of calcium ions in an endoplasmic reticulum (ER), calcium ion reservoir in the cell, resulting in increasing calcium ions in the cell. An in vitro screening assay system capable of searching materials that may suppress the increase in concentration of calcium ions in the cell due to activation of PAR-2 was constructed based on the existing search results. As a PAR-2 activator used in the experiment, activating peptide (AP) was used. As a reagent for detecting the concentration of calcium ions in the cell, the Calcium-4 assay kit by Molecular Probe Company was used. HCT-15, a PAR-2-overexpressed cell line, was used as a cell line used in the experiment.
The PAR-2 inhibitory activity of the synthesized material was evaluated by using such the protocol, and the assay profile of Compound 98 synthesized in Example 1 was shown in FIG. 1.

(2-methyl-1-m-tolyl-1H-benzo[d]imidazol-5-yl)(piperidin-1-yl)methanone [Compound 98]
Recovery rate of transepidermal water loss after acute skin barrier disruption ([1]; 1.0% applied to skin, 3 and 6 hours after application): rapid recovery
Activity in promoting the recovery after skin barrier disruption ([1]; overall conclusion, FIG. 3): best activity in promoting the recovery after skin barrier disruption
IC50 [2]: 95.3 µM
Activation of PAR-2 (Flag/Myc double staining image) [3]: activation of PAR-2 was suppressed
Recovery of transepidermal water loss ([4]; FIG. 4): promoted recovery
Recovery of moisture content in the stratum corneum ([4]; FIG. 5): promoted recovery
PCNA positive keratinocyte (PCNA staining) ([4]; FIG. 7): statically significant decrease
IC50 [5]: 243 µM
